According to ChEMBL document CHEMBL1275553, “Pyrosequencing to detect mutations in FKS1 that confer reduced echinocandin susceptibility in Candida albicans” (2008):
In brackets after ≈: the same amount, converted by molar mass. Starred links: 1 amine or outer side, 2 acyl side, 3 side chain; linkers in the order of their positions; H or OH if unused. Positions of bridges follow the written chain, without caps; N, C: chain ends. Non-standard residues stand in square brackets, D forms with d. Residues, ends and D or L forms follow the SMILES beside them. *: point of attachment. hTyr(3S-OH,4S-OH,3'-OSO3H) = N[C@H](C(=O)O)[C@H](O)[C@@H](O)c1ccc(O)c(OS(=O)(=O)O)c1; pTerphenylCO(4''-OnC5H11) = CCCCCOc1ccc(-c2ccc(-c3ccc(C(=O)*)cc3)cc2)cc1; Orn(4R-OH,5R-OH) = O=C([C@H](C[C@@H](O)[C@@H](O)N[*:3])N[*:1])[*:2]; hTyr(3S-OH,4S-OH) = N[C@H](C(=O)O)[C@H](O)[C@@H](O)c1ccc(O)cc1; Pro(3S-OH,4S-Me) = C[C@H]1CN[C@H](C(=O)O)[C@H]1O; X1 = CCCCCOc1ccc(-c2cc(-c3ccc(C(=O)*)cc3)no2)cc1; Gln(3R-OH) = NC(=O)C[C@@H](O)[C@H](N)C(=O)O; Hyp = O=C(O)[C@@H]1C[C@@H](O)CN1

How the values were obtained:
Type in all cases: functional
Candida albicans [1] = assay: Antifungal activity against Candida albicans 41301 expressing FKS1 F641S mutant after 24 hrs by broth microdilution method; conditions: Candida albicans, 41301, 24 h
Candida albicans [2] = assay: Antifungal activity against Candida albicans 43001 expressing FKS1 F641S mutant after 24 hrs by broth microdilution method; conditions: Candida albicans, 43001, 24 h
Candida albicans [3] = assay: Antifungal activity against Candida albicans SC5314 expressing wild type FKS1 after 24 hrs by broth microdilution method in presence of 50% human serum; conditions: SC5314, 24 h
Candida albicans [4] = assay: Antifungal activity against Candida albicans 4254 expressing FKS1 F641S mutant after 24 hrs by broth microdilution method in presence of 50% human serum; conditions: Candida albicans, 4254, 24 h
Candida albicans [5] = assay: Antifungal activity against Candida albicans 41509 expressing FKS1 F641S mutant after 24 hrs by broth microdilution method; conditions: Candida albicans, 41509, 24 h
Candida albicans [6] = assay: Antifungal activity against Candida albicans 32746 expressing FKS1 F641S mutant after 24 hrs by broth microdilution method in presence of 50% human serum; conditions: Candida albicans, 32746, 24 h
Candida albicans [7] = assay: Antifungal activity against Candida albicans 5415 expressing FKS1 F645P/H mutant after 24 hrs by broth microdilution method in presence of 50% human serum; conditions: Candida albicans, 5415, 24 h
Candida albicans [8] = assay: Antifungal activity against Candida albicans 41509 expressing FKS1 F641S mutant after 24 hrs by broth microdilution method in presence of 50% human serum; conditions: Candida albicans, 41509, 24 h
Candida albicans [9] = assay: Antifungal activity against Candida albicans 53264 expressing FKS1 F645P mutant after 24 hrs by broth microdilution method in presence of 50% human serum; conditions: Candida albicans, 53264, 24 h
Candida albicans [10] = assay: Antifungal activity against Candida albicans 2762 expressing FKS1 F641S mutant after 24 hrs by broth microdilution method; conditions: Candida albicans, 2762, 24 h
Candida albicans [11] = assay: Antifungal activity against Candida albicans 4715 expressing FKS1 F641S mutant after 24 hrs by broth microdilution method; conditions: Candida albicans, 4715, 24 h
Candida albicans [12] = assay: Antifungal activity against Candida albicans 5415 expressing FKS1 F645P/H mutant after 24 hrs by broth microdilution method; conditions: Candida albicans, 5415, 24 h
Candida albicans [13] = assay: Antifungal activity against Candida albicans 43001 expressing FKS1 F641S mutant after 24 hrs by broth microdilution method in presence of 50% human serum; conditions: Candida albicans, 43001, 24 h
Candida albicans [14] = assay: Antifungal activity against Candida albicans 32746 expressing FKS1 F641S mutant after 24 hrs by broth microdilution method; conditions: Candida albicans, 32746, 24 h
Candida albicans [15] = assay: Antifungal activity against Candida albicans 42286 expressing wild type FKS1 after 24 hrs by broth microdilution method; conditions: Candida albicans, 42286, 24 h
Candida albicans [16] = assay: Antifungal activity against Candida albicans 4715 expressing FKS1 F641S mutant after 24 hrs by broth microdilution method in presence of 50% human serum; conditions: Candida albicans, 4715, 24 h
Candida albicans [17] = assay: Antifungal activity against Candida albicans 53264 expressing FKS1 F645P mutant after 24 hrs by broth microdilution method; conditions: Candida albicans, 53264, 24 h
Candida albicans [18] = assay: Antifungal activity against Candida albicans 41301 expressing FKS1 F641S mutant after 24 hrs by broth microdilution method in presence of 50% human serum; conditions: Candida albicans, 41301, 24 h
Candida albicans [19] = assay: Antifungal activity against Candida albicans 42379 expressing FKS1 F645P mutant after 24 hrs by broth microdilution method in presence of 50% human serum; conditions: Candida albicans, 42379, 24 h
Candida albicans [20] = assay: Antifungal activity against Candida albicans 42996 expressing FKS1 F641S mutant after 24 hrs by broth microdilution method; conditions: Candida albicans, 42996, 24 h
Candida albicans [21] = assay: Antifungal activity against Candida albicans 42379 expressing FKS1 F645P mutant after 24 hrs by broth microdilution method; conditions: Candida albicans, 42379, 24 h
Candida albicans [22] = assay: Antifungal activity against Candida albicans 42996 expressing FKS1 F641S mutant after 24 hrs by broth microdilution method in presence of 50% human serum; conditions: Candida albicans, 42996, 24 h
Candida albicans [23] = assay: Antifungal activity against Candida albicans 2762 expressing FKS1 F641S mutant after 24 hrs by broth microdilution method in presence of 50% human serum; conditions: Candida albicans, 2762, 24 h
Candida albicans [24] = assay: Antifungal activity against Candida albicans 42286 expressing wild type FKS1 after 24 hrs by broth microdilution method in presence of 50% human serum; conditions: Candida albicans, 42286, 24 h
Candida albicans [25] = assay: Antifungal activity against Candida albicans SC5314 expressing wild type FKS1 after 24 hrs by broth microdilution method; conditions: SC5314, 24 h
Candida albicans [26] = assay: Antifungal activity against Candida albicans 4254 expressing FKS1 F641S mutant after 24 hrs by broth microdilution method; conditions: Candida albicans, 4254, 24 h

SMILES	MIC (Candida albicans [1]) [µg/mL]	MIC (Candida albicans [2]) [µg/mL]	MIC (Candida albicans [3]) [µg/mL]	MIC (Candida albicans [4]) [µg/mL]	MIC (Candida albicans [5]) [µg/mL]	MIC (Candida albicans [6]) [µg/mL]	MIC (Candida albicans [7]) [µg/mL]	MIC (Candida albicans [8]) [µg/mL]	MIC (Candida albicans [9]) [µg/mL]	MIC (Candida albicans [10]) [µg/mL]	MIC (Candida albicans [11]) [µg/mL]	MIC (Candida albicans [12]) [µg/mL]	MIC (Candida albicans [13]) [µg/mL]	MIC (Candida albicans [14]) [µg/mL]	MIC (Candida albicans [15]) [µg/mL]	MIC (Candida albicans [16]) [µg/mL]	MIC (Candida albicans [17]) [µg/mL]	MIC (Candida albicans [18]) [µg/mL]	MIC (Candida albicans [19]) [µg/mL]	MIC (Candida albicans [20]) [µg/mL]	other results
CCCCCOc1ccc(-c2ccc(-c3ccc(C(=O)N[C@H]4C[C@@H](O)[C@@H](O)NC(=O)[C@@H]5[C@@H](O)[C@@H](C)CN5C(=O)[C@H]([C@@H](C)O)NC(=O)[C@H]([C@H](O)[C@@H](O)c5ccc(O)cc5)NC(=O)[C@@H]5C[C@@H](O)CN5C(=O)[C@H]([C@@H](C)O)NC4=O)cc3)cc2)cc1 [ANIDULAFUNGIN] ({pTerphenylCO(4''-OnC5H11)}-[Orn(4R-OH,5R-OH)]T[Hyp][hTyr(3S-OH,4S-OH)]T[Pro(3S-OH,4S-Me)]; lactam 1-C)	0.25 (≈ 0.219 µM)	0.5 (≈ 0.438 µM)	0.5	2	0.5 (≈ 0.438 µM)	8	16	8	32	0.5 (≈ 0.438 µM)	0.25 (≈ 0.219 µM)	1 (≈ 0.877 µM)	4	0.25 (≈ 0.219 µM)	0.125 (≈ 0.11 µM)	8	1 (≈ 0.877 µM)	8	8	0.125 (≈ 0.11 µM)	MIC (Candida albicans [21]): 0.5 µg/mL (≈ 0.438 µM); MIC (Candida albicans [22]): 4 µg/mL; MIC (Candida albicans [23]): 4 µg/mL; MIC (Candida albicans [24]): 1 µg/mL; MIC (Candida albicans [25]): 0.03 µg/mL (≈ 0.0263 µM); MIC (Candida albicans [26]): 0.125 µg/mL (≈ 0.11 µM)
CC[C@H](C)C[C@H](C)CCCCCCCCC(=O)N[C@H]1C[C@@H](O)[C@@H](NCCN)NC(=O)[C@@H]2[C@@H](O)CCN2C(=O)[C@H]([C@H](O)CCN)NC(=O)[C@H]([C@H](O)[C@@H](O)c2ccc(O)cc2)NC(=O)[C@@H]2C[C@@H](O)CN2C(=O)[C@H]([C@@H](C)O)NC1=O [CASPOFUNGIN]	4 (≈ 3.66 µM)	4 (≈ 3.66 µM)	0.25	4	4 (≈ 3.66 µM)	4	32	8	> 32	4 (≈ 3.66 µM)	2 (≈ 1.83 µM)	8 (≈ 7.32 µM)	8	4 (≈ 3.66 µM)	2 (≈ 1.83 µM)	8	4 (≈ 3.66 µM)	8	> 32	4 (≈ 3.66 µM)	MIC (Candida albicans [21]): 8 µg/mL (≈ 7.32 µM); MIC (Candida albicans [22]): 8 µg/mL; MIC (Candida albicans [23]): 8 µg/mL; MIC (Candida albicans [24]): 4 µg/mL; MIC (Candida albicans [25]): 0.125 µg/mL (≈ 0.114 µM); MIC (Candida albicans [26]): 2 µg/mL (≈ 1.83 µM)
CCCCCOc1ccc(-c2cc(-c3ccc(C(=O)N[C@H]4C[C@@H](O)[C@@H](O)NC(=O)[C@@H]5[C@@H](O)[C@@H](C)CN5C(=O)[C@H]([C@H](O)CC(N)=O)NC(=O)[C@H]([C@H](O)[C@@H](O)c5ccc(O)c(OS(=O)(=O)O)c5)NC(=O)[C@@H]5C[C@@H](O)CN5C(=O)[C@H]([C@@H](C)O)NC4=O)cc3)no2)cc1 [MICAFUNGIN] (X1-[Orn(4R-OH,5R-OH)]T[Hyp][hTyr(3S-OH,4S-OH,3'-OSO3H)][Gln(3R-OH)][Pro(3S-OH,4S-Me)]; lactam 1-C)	0.5 (≈ 0.394 µM)	2 (≈ 1.57 µM)	1	8	0.5 (≈ 0.394 µM)	16	32	32	> 32	1 (≈ 0.787 µM)	1 (≈ 0.787 µM)	1 (≈ 0.787 µM)	16	1 (≈ 0.787 µM)	1 (≈ 0.787 µM)	16	4 (≈ 3.15 µM)	16	> 32	1 (≈ 0.787 µM)	MIC (Candida albicans [21]): 4 µg/mL (≈ 3.15 µM); MIC (Candida albicans [22]): 32 µg/mL; MIC (Candida albicans [23]): 16 µg/mL; MIC (Candida albicans [24]): 8 µg/mL; MIC (Candida albicans [25]): 0.06 µg/mL (≈ 0.0472 µM); MIC (Candida albicans [26]): 0.5 µg/mL (≈ 0.394 µM)
